These results are taken from patent US20260265700A1, “NEURAL BIOHYBRID MANUFACTURED USING REDUCED GRAPHENE OXIDE NANOPARTICLES, NEUROMUSCULAR JUNCTION MODEL USING SAME, AND DRUG SCREENING METHOD USING SAME” (Sogang University Research & Business Development Foundation, priority 2023, published 2026).

The test system of this assay is NMJs manufactured using ALS neural biohybrids. The assay can be described thus: Muscle bundle contraction in 3D ALS-neuromuscular junction model. The format is cell-based, human. Particulars: ALS-NMJ. The procedure:
First, a hydrogel used for the 3D muscle bundles was prepared using a mixture of 340 μl of C2C12, 30% Matrigel, 250 μl of 16 mg/ml […], 10 μl of thrombin (0.5 U/1 mg fibrinogen) and 100 μl of DMEM.
After culturing for 4 days, the medium was replaced with DMEM supplemented with 2% horse serum, 100 U/mL penicillin-G, 100 μg/mL streptomycin, 1 mg/mL aminocaproic acid, and 1 ng/mL insulin growth factor-1 (IGF-1) as a muscle cell differentiation medium. The medium was changed every 2 days, and differentiation was carried out for 14 days or more.
The co-culture differentiation medium, along with muscle differentiation medium, was supplemented with brain-derived and glial cell line-derived neurotrophic factors (10 ng/ml BDNF and 10 ng/ml GDNF) to support viability of multiple neural biohybrids. The differentiation medium was replaced every two days for two weeks.

For `COc1cc(Nc2c(C#N)cnc3cc(OCCCN4CCN(C)CC4)c(OC)cc23)c(Cl)cc1Cl` [bosutinib], the “contraction of the muscle bundle relative to muscle movement of normal NMJs” value (after 5 days of treatment, FIG. 3C) is reported as “approximately 85%”. The “concentration giving the greatest recovery of muscle movement” value (various concentrations tested, FIGS. 3D and 3E) is 100 µM.
